Key:
Settings in all cases: sulfur source concentration 200 µM; S. cerevisiae S288C/BY sul1Δ sul2Δ soa1Δ with transporter ortholog inserted at SOA1 locus; sulfur-free B medium, 4% glucose, pH 6.5, sole sulfur source
[1] = test system: Ogataea parapolymorpha_XP_013932458; test: maximal culture density with compound as sole sulfur source (OD600); higher = better growth
[2] = test system: Aspergillus nidulans_CBF74694; test: as above
[3] = test system: Saccharomyces uvarum_SOA2; test: as above
[4] = test system: Saccharomyces cerevisiae_SOA1; test: as above
[5] = test system: Metarhizium robertsii_XP_007823832; test: as above
[6] = test system: Aspergillus nidulans_XP_661733; test: as above
[7] = test system: Aspergillus nidulans_XP_660563; test: as above
[8] = test system: Aspergillus nidulans_XP_661711; test: as above
[9] = test system: Saccharomyces uvarum_SOA2; test: lag phase before growth; higher = slower start of growth
[10] = test system: Metarhizium robertsii_XP_007822519; test: as above
[11] = test system: Saccharomyces cerevisiae_SOA1; test: as above
[12] = test system: Saccharomyces eubayanus_SOA1; test: as above
[13] = test system: Ogataea parapolymorpha_XP_013935289; test: as above
[14] = test system: Saccharomyces uvarum_SOA1; test: as above
[15] = test system: Metarhizium robertsii_XP_007821441; test: maximal growth rate with compound as sole sulfur source (OD600 per h); higher = better growth / uptake of the sulfur source
[16] = test system: Ogataea parapolymorpha_XP_013932458; test: as above
[17] = test system: Aspergillus nidulans_XP_681611; test: as above
[18] = test system: Aspergillus nidulans_CBF74694; test: as above
[19] = test system: Saccharomyces uvarum_SOA2; test: as above
[20] = test system: Metarhizium robertsii_XP_007822519; test: as above
[21] = test system: Saccharomyces cerevisiae_SOA1; test: as above
[22] = test system: Metarhizium robertsii_XP_007823832; test: as above
[23] = test system: Saccharomyces eubayanus_SOA1; test: as above
[24] = test system: Ogataea parapolymorpha_XP_013935289; test: as above
[25] = test system: Aspergillus nidulans_CBF80346; test: as above
[26] = test system: Aspergillus nidulans_XP_661733; test: as above
[27] = test system: Aspergillus nidulans (IAM 2006)_astA; test: as above
[28] = test system: Aspergillus nidulans_XP_660670; test: as above
[29] = test system: soa1 del; test: as above
[30] = test system: Saccharomyces uvarum_SOA1; test: as above
[31] = test system: Saccharomyces eubayanus_SOA2; test: as above
[32] = test system: Ogataea parapolymorpha_XP_013936897; test: as above
[33] = test system: Fusarium oxysporum_ENH65823; test: as above
[34] = test system: Aspergillus nidulans_XP_660563; test: as above
[35] = test system: Aspergillus nidulans_XP_661711; test: as above

Row | SMILES | maximal culture density [1] | maximal culture density [2] | maximal culture density [3] | maximal culture density [4] | maximal culture density [5] | maximal culture density [6] | maximal culture density [7] | maximal culture density [8] | lag phase before growth [9] | lag phase before growth [10] | lag phase before growth [11] | lag phase before growth [12] | lag phase before growth [13] | lag phase before growth [14] | maximal growth rate [15] | maximal growth rate [16] | maximal growth rate [17] | maximal growth rate [18] | maximal growth rate [19] | maximal growth rate [20] | maximal growth rate [21] | maximal growth rate [22] | maximal growth rate [23] | maximal growth rate [24] | maximal growth rate [25] | maximal growth rate [26] | maximal growth rate [27] | maximal growth rate [28] | maximal growth rate [29] | maximal growth rate [30] | maximal growth rate [31] | maximal growth rate [32] | maximal growth rate [33] | maximal growth rate [34] | maximal growth rate [35]
1 | O=S(=O)(O)CO [Hydroxymethane sulfonate] | 0.234 | 0.203 | 1.73 | 1.61 | 1.5 | 0.267 | 0.318 | 0.207 | 11.1 h | 7.86 h | 6.75 h | 7.32 h | 6.08 h | 6.88 h | 0.0032 | 0.00402 | 0.00603 | 0.00325 | 0.107 | 0.0756 | 0.121 | 0.038 | 0.0972 | 0.114 | 0.00313 | 0.00489 | 0.0343 | 0.00358 | 0.00406 | 0.109 | 0.0594 | 0.00499 | 0.00319 | 0.00603 | 0.00357
2 | CSCC[C@H](N)C(=O)O [Methionine] | 1.56 | 1.57 | 1.68 | 1.61 | 1.58 | 1.59 | 1.6 | 1.6 | 4.3 h | 4.74 h | 5.45 h | 3.83 h | 4.02 h | 3.45 h | 0.137 | 0.131 | 0.142 | 0.138 | 0.138 | 0.139 | 0.145 | 0.138 | 0.129 | 0.13 | 0.139 | 0.136 | 0.143 | 0.139 | 0.141 | 0.131 | 0.127 | 0.123 | 0.144 | 0.13 | 0.139
3 | CCCS(=O)(=O)O [Propanesulfonate] | 0.243 | 0.192 | 1.69 | 1.6 | 0.507 | 0.249 | 0.327 | 0.232 | 19 h | 21.1 h | 15.7 h | 11.9 h | 10.8 h | 11.1 h | 0.0026 | 0.0042 | 0.00692 | 0.00267 | 0.0773 | 0.0162 | 0.0797 | 0.0143 | 0.0691 | 0.0825 | 0.00331 | 0.00555 | 0.0176 | 0.00401 | 0.00415 | 0.0748 | 0.0792 | 0.00486 | 0.00365 | 0.00627 | 0.00399
4 | O=S(O)O [sulfite] | 0.285 | 0.196 | 1.44 | 1.6 | 1.56 | 0.274 | 0.322 | 0.244 | 11 h | 0.981 h | 6.67 h | 6.97 h | 5.63 h | 5.95 h | 0.00339 | 0.0051 | 0.00588 | 0.00286 | 0.0556 | 0.0114 | 0.12 | 0.0855 | 0.0839 | 0.0989 | 0.00484 | 0.0047 | 0.104 | 0.00402 | 0.00378 | 0.0915 | 0.00564 | 0.00463 | 0.00381 | 0.00646 | 0.004

— the supplement of paper PMC5303821, “Major sulfonate transporter Soa1 in Saccharomyces cerevisiae and considerable substrate diversity in its fungal family” (Nature Communications, 2017)
